The values below come from US4001230A, “3-(5-Nitroimidazol-2-yl)pyrazolo[3,4-d]pyrimidine compounds” (Eli Lilly and Company, priority 1975, dated 1977).

Where two headings read alike, the source gives them in different places.

The subject of assay [1] is Pasteurella multocida. Description: Efficacy against Pasteurella multocida infections in mice when administered by injection. Format: in vivo, Female Swiss mice. Conditions: for responders at 5 mg/kg / responders at 2.5 mg/kg: Pasteurella multocida, ip, read-out: Survival ratio (mice surviving / mice tested) (converted). As to the method: The efficacy of the novel compounds against Pasteurella multocida infections in mice when administered by injection was studied.
Female Swiss mice weighing from 15 to about 20 g. were used. The test compound, 5.0 mg., was weighed out and dissolved in 0.5 ml. of dimethyl sulfoxide, and this solution was added to 9.5 ml. of sodium carboxymethylcellulose suspension. Groups of five mice each were injected intraperitoneally with 0.1 ml. each of the above-prepared test composition. This preparation gave a test rate of 2.5 mg. per kilo of body weight of mouse. The compounds were tested at 1.25, 2.5, or 5.0 per kilogram of body weight of mouse, and the test preparations for the rates of 1.25 and 5.0 mg./kg. were prepared in a similar manner. Immediately after receiving the test compound, the mice were challenged using log10 dilutions of 10^-^4, 10^-^5 and 10^-^6,of a 16 to 20-hour tryptose broth culture of Pasteurella multocida at 0.1 ml. per mouse subcutaneously. Similar groups of nontreated control mice were also challenged, the challenge being administered subcutaneously. The groups of mice were observed daily for mortality and the total mortality in treated groups compared with that which occurred in the nonmedicated control groups. Each test compound is identified by the number of the example describing its preparation.
In the chart, column 1 lists the test compound; column 2, the dosage of test compound in mg./kg. of mouse body weight; column 3, the dilution of the challenge organism; and column 4, the ratio of the number of mice surviving the test at each dosage and challenge dilution to the number of mice tested at each dosage and challenge dilution, called the survival ratio.

Assay [2] deals with Treponema hyodysenteriae. The experiment in a line: In vitro activity against Treponema hyodysenteriae on blood agar plates (MIC). It is filed as cell-based. As for the experimental part:
A number of representative compounds, namely, 5b, 8, and 15b, were tested for their in vitro activity against Treponema hyodysenteriae. The treponema were propagated on blood agar plates. Each plate which was prepared contained 20 ml. of trypticase soy agar (Baltimore Biological Laboratory [BBL]) with 5.0 g./l. of yeast extract (Difco) and 5 percent sterile defibrinated horse blood. The plates were sterile plastic 15 × 100 mm. petri plates. Incubation was carried out at 37° C. for 4 days under anaerobic conditions using the BBL Gas Pak system.
The concentrations of test compounds in this initial test were prepared in dilutions ranging from 2000 mcg./ml. to 7.8 mcg./ml. The test procedure was carried out in the following manner. Five ml. of a twenty-fold concentration in tryptose broth (Difco) of each filter-sterilized test compound dilution was mixed in a series of flasks containing 90 ml. of melted trypticase soy agar with yeast extract. Five ml. of horse blood was then added per flask. The contents of these flasks were then used to prepare a series of blood agar plates in doubling decreasing dilutions ranging from 100 mcg./ml. to 0.39 mcg./ml.
The treponema for inoculation of these plates were obtained by adding 3.0 ml. of sterile tryptose broth to the surface of a plate on which the treponema had been propagated. A sterile cotton-tipped swab was used to loosen the treponema from the agar. […] The inoculum was spread so that it covered the surface of each plate, a bent sterile plastic pipette being used for this purpose for each plate. The plates were incubated at about 36° C. for about 4 days and then examined for growth of the treponema. The minimum inhibitory concentration (MIC) of each test compound was the concentration that prevented growth of treponema.

Assay [3] concerns Pseudomonas sp. The experiment in a line: In vitro activity against fish bacterial pathogen, standard tube dilution test (MIC). The conditions noted are these: tryptose broth, overnight, about 37° C., read-out: minimum inhibitory concentration (MIC). Format: cell-based. As to the method: (§1) The in vitro activity of certain of the novel compounds of this invention against two fish bacterial pathogens was determined using tryptose broth and the standard tube dilution test system. Doubling dilutions ranging from 100.0 to 0.78 mcg./ml. of each of the test compounds were prepared in 5 ml. amounts of tryptose broth. Each tube in the series was then inoculated with one drop from a 24-hour broth culture of either Pseudomonas sp. or a strain of Aeromonas liquefaciens. The tubes were incubated overnight at about 37° C., and the minimum inhibitory concentration (MIC) determined and recorded.
(§2) Column 1 lists the test compounds identified by their operating example number; column 2 lists the MIC for Pseudomonas sp.; and column 3 lists the MIC for Aeromonas liquefaciens.

Assay [4] deals with Aeromonas liquefaciens. The description is as above. Format: cell-based. Conditions: Aeromonas hydrophila, read-out: minimum inhibitory concentration (MIC). As to the method:
as §1, §2

[5] abbreviates: 5.0 mg./kg. intraperitoneal, challenge dilution 10^-^4 subcutaneous.
Setting [6] is: 5.0 mg./kg. intraperitoneal, challenge dilution 10^-^5 subcutaneous.
Where [7] appears, read: 5.0 mg./kg. intraperitoneal, challenge dilution 10^-^6 subcutaneous.
Setting [8] is: 2.5 mg./kg. intraperitoneal, challenge dilution 10^-^4 subcutaneous.
Where [9] appears, read: 2.5 mg./kg. intraperitoneal, challenge dilution 10^-^5 subcutaneous.
The mark [10] stands for this setting: 2.5 mg./kg. intraperitoneal, challenge dilution 10^-^6 subcutaneous.
[11] abbreviates: Aeromonas liquefaciens, tryptose broth, overnight, about 37° C.

For the compound `Cn1c([N+](=O)[O-])cnc1-c1nn(C)c2ncnc(N)c12` [Example 4, 4-Amino-1-methyl-3-(1-methyl-5-nitroimidazol-2-yl)-1H-pyrazolo-[3,4-d]pyrimidine], the “Survival ratio (mice surviving / mice tested)” value in assay [1] (setting [5]) was 4/10. The responders at 5 mg/kg in assay [1] (setting [6]) and in assay [1] (setting [7]) was 50% in each case.

Consider `Cl.Cn1c([N+](=O)[O-])cnc1-c1nn(C)c2ncnc(N)c12` [Example 4a, 4-amino-1-methyl-3-(1-methyl-5-nitroimidazol-2-yl)-1H-pyrazolo[3,4-d]pyrimidine hydrochloride], for which the “Survival ratio (mice surviving / mice tested)” value in assay [1] (setting [5]), in assay [1] (setting [6]) and in assay [1] (setting [7]) was 7/10 in each case.

Take `CCCn1cnc2c(c(-c3ncc([N+](=O)[O-])n3C)nn2C)c1=N` [Example 5, 4,5-Dihydro-4-imino-1-methyl-3-(1-methyl-5-nitroimidazol-2-yl)-5-propyl-1H-pyrazolo[3,4-d]pyrimidine]: the figures for the responders at 5 mg/kg in assay [1] (setting [5]), in assay [1] (setting [6]) and in assay [1] (setting [7]) were 30%, 60% and 90%, respectively.

Regarding `CCCn1cnc2c(c(-c3ncc([N+](=O)[O-])n3C)nn2C)c1=N.O=[N+]([O-])O` [Example 5b, 4,5-Dihydro-4-imino-1-methyl-3-(1-methyl-5-nitroimidazol-2-yl)-5-propyl-1H-pyrazolo[3,4-d]pyrimidine mononitrate], the MIC in assay [2] (Brachyspira hyodysenteriae, 96 h, read-out: minimum inhibitory concentration (MIC)) was ≤ 1.56 µg/mL; in assay [3] it was 3.12 µg/mL; in assay [4], 25 µg/mL. Also, the “inhibition of growth of the treponema” value in assay [2] (doubling dilutions 100 mcg./ml. to 0.39 mcg./ml.) was “inhibited growth of the treponema at each of the levels tested”.

`Cn1c([N+](=O)[O-])cnc1-c1nn(C)c2ncnc(NCC(=O)O)c12` [Example 6, N-[1-Methyl-3-(1-methyl-5-nitroimidazol-2-yl)-1H-pyrazolo[3,4-d]pyrimidin-4-yl]glycine]: the responders at 5 mg/kg in assay [1] (setting [5]), in assay [1] (setting [6]) and in assay [1] (setting [7]) was 20% each time.

Consider `CCn1cnc2c(c(-c3ncc([N+](=O)[O-])n3C)nn2C)c1=N` [Example 7, 5-Ethyl-4,5-dihydro-4-imino-1-methyl-3-(1-methyl-5-nitroimidazol-2-yl)-1H-pyrazolo[3,4-d]pyrimidine], for which the results for the responders at 2.5 mg/kg in assay [1] (setting [8]), in assay [1] (setting [9]) and in assay [1] (setting [10]) were 20%, 40% and 60%, respectively. Besides, the responders at 5 mg/kg was 40% in assay [1] (setting [5]), 70% in assay [1] (setting [6]) and 100% in assay [1] (setting [7]).

Consider `CCN(CC)CCn1cnc2c(c(-c3ncc([N+](=O)[O-])n3C)nn2C)c1=N` [Example 8a, 5-[2-(Diethylamino)ethyl]-4,5-dihydro-4-imino-1-methyl-3-(1-methyl-5-nitroimidazol-2-yl)-1H-pyrazolo[3,4-d]-pyrimidine], for which the figures for the responders at 5 mg/kg in assay [1] (setting [5]), in assay [1] (setting [6]) and in assay [1] (setting [7]) were 40%, 20% and 100%, respectively.

Regarding `Cn1c([N+](=O)[O-])cnc1-c1nn(C)c2ncn(Cc3ccncc3)c(=N)c12` [Example 8d, 4,5-Dihydro-4-imino-1-methyl-3-(1-methyl-5-nitroimidazol-2-yl)-5-(4-pyridylmethyl)-1H-pyrazolo[3,4-d]pyrimidine], the responders at 5 mg/kg in assay [1] (setting [5]), in assay [1] (setting [6]) and in assay [1] (setting [7]) was 100% each time.

As to `CN(C)CCn1cnc2c(c(-c3ncc([N+](=O)[O-])n3C)nn2C)c1=N.Cl.Cl` [Example 8g, 5-[2-(dimethylamino)-ethyl]-4,5-dihydro-4-imino-1-methyl-3-(1-methyl-5-nitroimidazol-2-yl)-1H-pyrazolo[3,4-d]pyrimidine dihydrochloride], the “Survival ratio (mice surviving / mice tested)” value in assay [1] (setting [8]) is 2/10; in assay [1] (setting [9]), 6/10; in assay [1] (setting [10]) it was 10/10; in assay [1] (setting [5]) it was 7/10; in assay [1] (setting [6]), 9/10; in assay [1] (setting [7]) it was 10/10.

In the case of `Cn1c([N+](=O)[O-])cnc1-c1nn(C)c2ncn(Cc3ccncc3)c(=N)c12` [Example 8k, 4,5-dihydro-4-imino-1-methyl-3-(1-methyl-5-nitroimidazol-2-yl)-5-(4-pyridylmethyl)-1H-pyrazolo[3,4-d]pyrimidine diphosphate], the MIC in assay [3] came out at 0.78 µg/mL; in assay [4] (setting [11]), 50 µg/mL.

Consider `Cn1c([N+](=O)[O-])cnc1-c1nn(C)c2ncnc(NN)c12` [Example 9, 4-Hydrazino-1-methyl-3-(1-methyl-5-nitroimidazol-2-yl)-1H-pyrazolo[3,4-d]pyrimidine], for which the responders at 5 mg/kg in assay [1] (setting [5]) is 100%; in assay [1] (setting [6]) it was 80%; in assay [1] (setting [7]), 90%.

For the compound `Cn1c([N+](=O)[O-])cnc1-c1nn(C)c2ncnc(NN)c12.O=P(O)(O)O` [Example 9a, 4-hydrazino-1-methyl-3-(1-methyl-5-nitroimidazol-2-yl)-1H-pyrazolo[3,4-d]-pyrimidine monophosphate], the MIC in assay [3] was 0.78 µg/mL; in assay [4] (setting [11]), 25 µg/mL.

On to `CC(=O)Nc1ncnc2c1c(-c1ncc([N+](=O)[O-])n1C)nn2C` [Example 11, N-[1-Methyl-3-(1-methyl-5-nitroimidazol-2-yl)-1H-pyrazolo[3,4-d]-pyrimidin-4-yl]acetamide], for which the figures for the responders at 5 mg/kg in assay [1] (setting [5]), in assay [1] (setting [6]) and in assay [1] (setting [7]) were 0%, 0% and 20%, respectively.

For `Cn1c([N+](=O)[O-])cnc1-c1nn(C)c2nc(C(F)(F)F)[nH]c(=O)c12` [Example 12, 1,5-Dihydro-1-methyl-3-(1-methyl-5-nitroimidazol-2-yl)-6-(trifluoromethyl)-4H-pyrazolo[3,4-d]pyrimidin-4-one], the responders at 5 mg/kg in assay [1] (setting [5]) is 20%; in assay [1] (setting [6]), 20%; in assay [1] (setting [7]) it was 0%.

Regarding `CCOC(Cn1cnc2c(c(-c3ncc([N+](=O)[O-])n3C)nn2C)c1=N)OCC` [Example 14, 4-Imino-1-methyl-3-(1-methyl-5-nitroimidazol-2-yl)-1H-pyrazolo-[3,4-d]pyrimidine-5(4H)-acetaldehyde, diethyl acetal], the responders at 5 mg/kg in assay [1] (setting [5]) is 0%; in assay [1] (setting [6]), 20%; in assay [1] (setting [7]), 40%.
